According to US11065251B2, “PAK1 inhibitors and uses thereof” (Albert Einstein College of Medicine, priority 2016, dated 2021):
Where two headings read alike, the source gives them in different places.

What was measured:
PAK1 = PAK1 (Homo sapiens, UniProt Q13153); assay: PAK1 IC50 determination, Z'-LYTE kinase assay; type: biochemical; details: [ATP]=10×Km; [PAK1]=1 ng; read-out: IC50 against PAK1
Description: Protocol for determining IC50 Values for test compounds at [ATP]=10×Km; [PAK1]=1 ng
Add 2 ml 5× Kinase Buffer to 8 ml water to prepare […] of Kinase Buffer A.
• Thaw the concentrated stock of test compound at room temperature. • 2.1. Add 10 μl of 100% DMSO to row A, columns 2-11 (wells A2-A11) in a 96-well assay plate (non-binding surface). To well A1, add 15 μl of the concentrated stock of test compound. This will be the highest concentration of test compound in a 10-point titration curve. Use a concentration that is 100× the final desired 1× concentration per 10 μl kinase reaction. For example, if the final 1× concentration of 100 μM is desired for the highest concentration of test compound in the 10 point titration curve, add 15 μl of 10 mM test compound to well A1. • 2.2. Titrate the 100× test compound three-fold across the assay plate from well A1 to well A10. To perform this threefold titration, transfer 5 μl of the 100× test compound from well A1 to the 10 μl of 100% DMSO in well A2. Repeat for wells A2-A10. Discard the final 5 μl from well A10 so that all wells contain 10 μl. […] This completes the 10-point three-fold titration of test compound at 100× concentration. • 2.3. Transfer a 2 μl aliquot of the 100× test compound titration series from each well in row A of the 96-well assay plate (wells A1-A12) to row B (wells B1-B12). Add 48 μl of complete kinase reaction buffer to each well in row B to dilute the 100× three-fold titration series of test compound to 4× (the DMSO will also be diluted, to 4%). • 2.4. Transfer 2.5 μl of the 4× concentrated three-fold titration series of test compound from row B of the 96-well assay plates to quadruplicate wells of a 384-well assay plate. Each well in columns 21-24 should contain 2.5 μl of 4% DMSO (no compound) in complete kinase reaction buffer. This 2.5 μl addition of 4× test compound in 4% DMSO produces a 1× concentration of test compound in 1% DMSO for a 10 μl kinase reaction. • 2.5. Dispense 2.5 μl of complete kinase reaction buffer to each well in columns 23-24 of the 384-well assay plate.
• 1. Prepare 500 μl of 4 μM Z′-LYTE® Phospho-peptide by adding 2 μl of 1 mM Z′-LYTE® Phospho-peptide to 498 μl of complete kinase reaction buffer. • 2. Dispense 5 μl of the 4 μM Z′-LYTE® Phospho-peptide (2×) to each well in column 24 of the 384-well assay plate. • 3. Prepare 1000 μl of 4 μM Z′-LYTE® Peptide Substrate (2×)/2× kinase solution in complete kinase reaction buffer. If necessary, prepare an intermediate dilution of the kinase in complete kinase reaction buffer before preparing the Z′-LYTE™ Peptide Substrate (2×)/2× kinase solution. Use the appropriate 2× kinase concentration in the assay to phosphorylate 20-50% of the 0% inhibition controls at the ATP concentration desired. • 4. […]

[1] = tested on: other PAK family members (PAK2, PAK3, PAK4, PAK6, PAK7); assay: Inhibitory activity against other PAK family members; type: biochemical; details: in words
Description: A cell-based small molecule screening with 50,024 compounds was performed based on AML cell lines that grow in a PAK1-dependent manner, which has been previously described (Pandolfi et al., 2015). This was followed by single point PAK1 enzymatic activity screening against 360 compounds. Forty-six identified compounds that scored positive in this assay were subjected to enzymatic activity assays against other PAK family kinases including PAK2, PAK3, PAK4, PAK6, and PAK7. […] Those compounds were studied in further detail and key biochemical, pharmacokinetic, and structure-activity characteristics were determined.

larger kinase panel = assay: Selectivity against a larger kinase panel; type: binding; details: in words
[2] = Microsomal stability, human (HLM); type: in vitro ADME; details: human microsomes; for CLh: in mL/min/kg (unit assumed); for microsomal CLint / half-life: liver microsomes; for half-life: read-out: t½
[3] = Microsomal stability, rat (RLM); type: in vitro ADME; details: rat microsomes; for microsomal CLint / half-life: liver microsomes; for half-life: read-out: t½; for CLh: in mL/min/kg (unit assumed)
[4] = Microsomal stability, mouse (MLM); type: in vitro ADME; details: for microsomal CLint / half-life: liver microsomes; for half-life: read-out: t½; for ER / CLh: mouse microsomes; for CLh: in mL/min/kg (unit assumed)
[5] = Pharmacokinetic (PK) assessment in rats; type: in vivo; details: for C0 / Cmax / MRT inf / Tmax / clearance / MRT last / half-life / AUC(0-inf) / AUC(0-t) / Vd / CL/F / Vd/F: rat, plasma; for MRT last: read-out: MRTlast; for half-life: read-out: T ½ (converted); for Fabs, % (from AUCINF) / Fabs, % (from AUClast): PO 10 mg/kg versus IV 2 mg/kg; for Vd/F: read-out: Vz/F
[6] = iv, 2 mg/kg, IV, 2 mg/kg, mean, read-out: AUCINF
[7] = iv, 2 mg/kg, IV, 2 mg/kg, mean, read-out: AUClast
[8] = iv, 2 mg/kg, IV, 2 mg/kg, mean, read-out: Vss
[9] = iv, 2 mg/kg, IV, 2 mg/kg, mean, read-out: Vz
[10] = po, 10 mg/kg, PO, 10 mg/kg, mean, read-out: AUClast
[11] = iv, 2 mg/kg, IV, dose 2 mg/kg, summary section, no unit printed there, read-out: AUCINF, IV plasma
[12] = iv, 2 mg/kg, IV, dose 2 mg/kg, summary section, no unit printed there, read-out: AUClast, IV plasma
[13] = po, 10 mg/kg, PO, 10 mg/kg, mean, read-out: AUCINF
[14] = po, 10 mg/kg, PO, dose 10 mg/kg, summary section, no unit printed there, read-out: AUCINF, PO plasma
[15] = po, 10 mg/kg, PO, dose 10 mg/kg, summary section, no unit printed there, read-out: AUClast, PO plasma

Sequence of PAK1 (Q13153 whole entry): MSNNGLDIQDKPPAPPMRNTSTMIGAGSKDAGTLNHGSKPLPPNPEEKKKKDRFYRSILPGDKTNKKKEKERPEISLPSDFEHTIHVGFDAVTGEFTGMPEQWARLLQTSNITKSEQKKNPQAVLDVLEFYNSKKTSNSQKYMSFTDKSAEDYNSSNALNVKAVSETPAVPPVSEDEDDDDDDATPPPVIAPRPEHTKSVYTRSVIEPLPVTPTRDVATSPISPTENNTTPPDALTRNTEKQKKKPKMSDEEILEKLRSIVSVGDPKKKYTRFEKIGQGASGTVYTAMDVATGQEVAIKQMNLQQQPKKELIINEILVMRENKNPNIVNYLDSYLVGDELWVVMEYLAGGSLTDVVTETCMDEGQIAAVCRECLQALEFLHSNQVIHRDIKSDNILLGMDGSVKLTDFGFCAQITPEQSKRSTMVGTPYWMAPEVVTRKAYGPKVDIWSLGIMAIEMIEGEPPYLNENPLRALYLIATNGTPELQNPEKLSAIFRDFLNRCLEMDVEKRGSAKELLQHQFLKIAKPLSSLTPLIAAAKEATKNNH

For CSc1ccc(-c2nc3cccc(C)n3c2Nc2ccc3c(c2)OCCO3)cc1 [Compound C273-0489], the IC50 (PAK1) was 0.47 µM, the “inhibitory activity against any of the other PAK family members” value (“inhibitory activity against any” for short) [1] was “no significant inhibitory activity” and the “inhibition against a larger kinase panel” value (larger kinase panel) was “no significant inhibition”. For the same compound, the ER [2] was 0.89, the CLh [2] was 19.24 and the microsomal CLint [2] was 199 µL/min/mg. The half-life [2] was 13.9 min, the microsomal CLint [3] was 1830 µL/min/mg and the half-life [3] was 1.51 min. The ER [3] was 0.98, the CLh [3] was 54.10 and the microsomal CLint [4] was 664 µL/min/mg. The half-life [4] was 4.18 min, the ER [4] was 0.97 and the CLh [4] was 87.00. The K el ([5]; IV, 2 mg/kg, mean) was 0.07 h⁻¹, the C0 ([5]; IV, 2 mg/kg, mean) was 0.0717 µg/mL and the Cmax ([5]; IV, 2 mg/kg, mean) was 0.0534 µg/mL. The MRT inf ([5]; IV, 2 mg/kg, mean) was 736 min, the Tmax ([5]; IV, 2 mg/kg, mean) was 4.8 min and the clearance ([5]; IV, 2 mg/kg, mean) was 12.8 L/h/kg. It also gave an MRT last ([5]; IV, 2 mg/kg, mean) of 391 min, a half-life ([5]; IV, 2 mg/kg, mean) of 636 min and a Cmax ([5]; PO, 10 mg/kg, mean) of 0.0174 µg/mL. It also gave a Tmax ([5]; PO, 10 mg/kg, mean) of 200 min, an MRT last ([5]; PO, 10 mg/kg, mean) of 238 min and an AUC(0-inf) [5, 6] of 0.156 µg·h/mL. The AUC(0-t) [5, 7] was 0.129 µg·h/mL, the Vd [5, 8] was 158 L/kg and the Vd [5, 9] was 197 L/kg. The AUC(0-t) [5, 10] was 0.0927 µg·h/mL.

With CCC1CCCCN1c1cc(C)nc2nc(-c3ccc(C)cc3)nn12 (stereo not drawn) [Compound D245-0091, 7-(2-Ethylpiperidin-1-yl)-5-methyl-2-(p-tolyl)-[1,2,4]triazolo[1,5-a]pyrimidine] the IC50 (PAK1) was 5 µM, the “inhibitory activity against any” value [1] was “no significant inhibitory activity” and the “inhibition against a larger kinase panel” value (larger kinase panel) was “no significant inhibition”. For the same compound, the ER [2] was 0.83, the CLh [2] was 18.11 and the microsomal CLint [2] was 114 µL/min/mg. It also gave a half-life [2] of 24.3 min, a microsomal CLint [3] of 159 µL/min/mg and a half-life [3] of 17.4 min. The ER [3] was 0.84, the CLh [3] was 46.14 and the microsomal CLint [4] was 243 µL/min/mg. The half-life [4] was 11.4 min, the ER [4] was 0.91 and the CLh [4] was 82.27. The K el ([5]; IV, 2 mg/kg, mean) was 0.42 h⁻¹, the “Fabs, % (from AUCINF)” value [5] was 9.4% and the “Fabs, % (from AUClast)” value [5] was 9.1%. The K el ([5]; PO, 10 mg/kg, mean) was 0.37 h⁻¹, the C0 ([5]; IV, 2 mg/kg, mean) was 1.01 µg/mL and the Cmax ([5]; IV, 2 mg/kg, mean) was 0.74 µg/mL. It also gave an MRT inf ([5]; IV, 2 mg/kg, mean) of 101 min, a Tmax ([5]; IV, 2 mg/kg, mean) of 4.8 min and a clearance ([5]; IV, 2 mg/kg, mean) of 2.81 L/h/kg. It also gave an MRT last ([5]; IV, 2 mg/kg, mean) of 87.6 min, a half-life ([5]; IV, 2 mg/kg, mean) of 99.6 min and a CL/F ([5]; PO, 10 mg/kg, mean) of 31.5 L/h/kg. The Cmax ([5]; PO, 10 mg/kg, mean) was 0.0857 µg/mL, the MRT inf ([5]; PO, 10 mg/kg, mean) was 181 min and the Tmax ([5]; PO, 10 mg/kg, mean) was 70.2 min. For the same compound, the MRT last ([5]; PO, 10 mg/kg, mean) was 151 min, the half-life ([5]; PO, 10 mg/kg, mean) was 112 min and the Vd/F ([5]; PO, 10 mg/kg, mean) was 84.8 L/kg. For the same compound, the AUC(0-inf) [5, 6] was 0.714 µg·h/mL, the AUC(0-t) [5, 7] was 0.695 µg·h/mL and the Vd [5, 8] was 4.77 L/kg. The Vd [5, 9] was 6.74 L/kg, the AUC(0-inf) [5, 11] was 0.714 µg·h/mL and the AUC(0-t) [5, 12] was 0.695 µg·h/mL. The AUC(0-inf) [5, 13] was 0.334 µg·h/mL, the AUC(0-t) [5, 10] was 0.315 µg·h/mL and the AUC(0-inf) [5, 14] was 0.334 µg·h/mL. It also gave an AUC(0-t) [5, 15] of 0.315 µg·h/mL.

For COc1cccc(-c2oncc2CN2CCN(C(C)=O)CC2)c1 [Compound T813-0242, 1-(4-((5-(3-Methoxyphenyl)isoxazol-4-yl)methyl)piperazin-1-yl)ethanone], the IC50 (PAK1) was 0.9 µM, the “inhibitory activity against any” value [1] was “no significant inhibitory activity” and the “inhibition against a larger kinase panel” value (larger kinase panel) was “no significant inhibition”. For the same compound, the ER [2] was 0.66, the CLh [2] was 14.31 and the microsomal CLint [2] was 38.8 µL/min/mg. It also gave a half-life [2] of 71.4 min, a microsomal CLint [3] of 34 µL/min/mg and a half-life [3] of 81.5 min. For the same compound, the ER [3] was 0.53, the CLh [3] was 28.97 and the microsomal CLint [4] was 44.4 µL/min/mg. For the same compound, the half-life [4] was 62.4 min, the ER [4] was 0.66 and the CLh [4] was 59.41. For the same compound, the K el ([5]; IV, 2 mg/kg, mean) was 3.03 h⁻¹, the “Fabs, % (from AUCINF)” value [5] was 3.8% and the “Fabs, % (from AUClast)” value [5] was 3.8%. For the same compound, the K el ([5]; PO, 10 mg/kg, mean) was 1.05 h⁻¹, the C0 ([5]; IV, 2 mg/kg, mean) was 3.15 µg/mL and the Cmax ([5]; IV, 2 mg/kg, mean) was 2.21 µg/mL. It also gave an MRT inf ([5]; IV, 2 mg/kg, mean) of 18 min, a Tmax ([5]; IV, 2 mg/kg, mean) of 4.8 min and a clearance ([5]; IV, 2 mg/kg, mean) of 2.2 L/h/kg. The MRT last ([5]; IV, 2 mg/kg, mean) was 17.4 min, the half-life ([5]; IV, 2 mg/kg, mean) was 13.8 min and the CL/F ([5]; PO, 10 mg/kg, mean) was 58.4 L/h/kg. It also gave a Cmax ([5]; PO, 10 mg/kg, mean) of 0.202 µg/mL, an MRT inf ([5]; PO, 10 mg/kg, mean) of 50.4 min and a Tmax ([5]; PO, 10 mg/kg, mean) of 19.8 min. For the same compound, the MRT last ([5]; PO, 10 mg/kg, mean) was 45 min, the half-life ([5]; PO, 10 mg/kg, mean) was 41.4 min and the Vd/F ([5]; PO, 10 mg/kg, mean) was 56.2 L/kg. The AUC(0-inf) [5, 6] was 0.911 µg·h/mL, the AUC(0-t) [5, 7] was 0.909 µg·h/mL and the Vd [5, 8] was 0.65 L/kg. For the same compound, the Vd [5, 9] was 0.73 L/kg, the AUC(0-inf) [5, 11] was 0.911 µg·h/mL and the AUC(0-t) [5, 12] was 0.909 µg·h/mL. For the same compound, the AUC(0-inf) [5, 13] was 0.175 µg·h/mL, the AUC(0-t) [5, 10] was 0.171 µg·h/mL and the AUC(0-inf) [5, 14] was 0.175 µg·h/mL. The AUC(0-t) [5, 15] was 0.171 µg·h/mL.
